One assay has as its system U-2 OS. Briefly: relative cell count vs DMSO (cell painting) (fraction of DMSO control); higher = more cells remaining (less cytotoxic). Conditions: 2.5 µM; 24 h. An outline of the steps: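 Using 384-well plates holding about 1,500 U-2 OS cells per well, treatment was applied by pin tool for 24 h at 37 °C, generally at six 2-fold concentrations ranging from 20 μM to 625 nM. Staining with MitoTracker, concanavalin A, phalloidin, wheat germ agglutinin, Hoechst and SYTO 14 preceded Opera Phenix imaging and CellProfiler feature extraction against DMSO cells on the same plate. Activity score and cell count are both referenced to DMSO wells, the former as a Mahalanobis distance. Four replicate plates were averaged for every value.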
Compound `Oc1cccc(O)c1O` yielded a relative cell count of 0.978.

The same assay, now with this note: 5 µM; 24 h.
In turn, `O=C(CCCCCCC(=O)Nc1ccccc1)NO` displayed a relative cell count of 0.776.
On the same count and under the same terms, under `Cn1c(SC2=CS(=O)(=O)c3ccccc32)nnc1-c1ccc(O)cc1` stands 0.761.
The same measure, in the same setting: under `Cc1onc(C(=O)N2CCN(C(c3ccc(Cl)cc3)c3ccc(Cl)cc3)CC2)c1[N+](=O)[O-]` stands 0.853; under `Cc1cc(NC(=O)c2cccc(NC(=O)/C=C/CN(C)C)c2)ccc1Nc1nccc(-c2cccnc2)n1`, 0.839.
Compound `c1ccc(-c2noc(NC3CCCC3)n2)cc1` had a relative cell count of 1.05.
On the same count and under the same terms, under `O=[N+]([O-])c1c(Cl)cc(Cl)c2nsnc12` stands 0.222.
Same read-out and setting: under `O=C(/C(C(N1CC2=CC=CC=C2)=O)=C/C3=C(C)C=C(O)C=C3C)N(CC4=CC=CC=C4)C1=O` stands 0.841; under `Oc1cccc(O)c1O`, 1.02.

The same assay, now with this note: 10 µM; 24 h.
In turn, `O=C(CCCCCCC(=O)Nc1ccccc1)NO` had a relative cell count of 0.491.
In turn, `Cn1c(SC2=CS(=O)(=O)c3ccccc32)nnc1-c1ccc(O)cc1` gave a relative cell count of 0.527.
Still for that read-out and setting: under `Cc1onc(C(=O)N2CCN(C(c3ccc(Cl)cc3)c3ccc(Cl)cc3)CC2)c1[N+](=O)[O-]` stands 0.9; under `Cc1cc(NC(=O)c2cccc(NC(=O)/C=C/CN(C)C)c2)ccc1Nc1nccc(-c2cccnc2)n1`, 0.742; under `c1ccc(-c2noc(NC3CCCC3)n2)cc1`, 1.07.
In turn, `O=[N+]([O-])c1c(Cl)cc(Cl)c2nsnc12` registered a relative cell count of 0.02.
In the case of `O=C(/C(C(N1CC2=CC=CC=C2)=O)=C/C3=C(C)C=C(O)C=C3C)N(CC4=CC=CC=C4)C1=O`, the relative cell count is 0.776.
On the same count and under the same terms, under `Oc1cccc(O)c1O` stands 0.974.

Still in this assay, the particulars now being: 20 µM; 24 h.
In the case of `O=C(CCCCCCC(=O)Nc1ccccc1)NO`, the relative cell count was determined as 0.438.
Still for that read-out and setting: under `Cn1c(SC2=CS(=O)(=O)c3ccccc32)nnc1-c1ccc(O)cc1` stands 0.379.
Compound `Cc1onc(C(=O)N2CCN(C(c3ccc(Cl)cc3)c3ccc(Cl)cc3)CC2)c1[N+](=O)[O-]` gave a relative cell count of 0.81.
In turn, `Cc1cc(NC(=O)c2cccc(NC(=O)/C=C/CN(C)C)c2)ccc1Nc1nccc(-c2cccnc2)n1` gave a relative cell count of 0.425.
Still for that read-out and setting: under `c1ccc(-c2noc(NC3CCCC3)n2)cc1` stands 1.06; under `O=[N+]([O-])c1c(Cl)cc(Cl)c2nsnc12`, 0.0161.
As for `O=C(/C(C(N1CC2=CC=CC=C2)=O)=C/C3=C(C)C=C(O)C=C3C)N(CC4=CC=CC=C4)C1=O`, the relative cell count amounted to 0.292.
The same measure, in the same setting: under `Oc1cccc(O)c1O` stands 0.973.

Still in this assay, the particulars now being: 40 µM; 24 h.
In turn, `O=C(/C(C(N1CC2=CC=CC=C2)=O)=C/C3=C(C)C=C(O)C=C3C)N(CC4=CC=CC=C4)C1=O` came in with a relative cell count of 0.419.

The same assay, now with this note: 80 µM; 24 h.
In the case of `O=C(/C(C(N1CC2=CC=CC=C2)=O)=C/C3=C(C)C=C(O)C=C3C)N(CC4=CC=CC=C4)C1=O`, the relative cell count was found to be 0.0657.

In another assay the test system is U-2 OS. The assay can be described thus: AUC of culture confluence over time (live-cell imaging) (AUC (confluence % x time)); higher = more confluent culture (less growth inhibition). Conditions: 5 µM. The method in brief: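 Reported values are areas under curves of confluence against time, recorded by live-cell imaging of U-2 OS cells. Cells in F-12K medium with 10% FBS, seeded at 750 per well in 384-well plates, were treated by pin tool 24 h later, most compounds at 20, 10 and 5 μM with 0.2% DMSO. Imaging at 37 °C took place every 4 h for up to 60 h.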
Turning to `O=C(CCCCCCC(=O)Nc1ccccc1)NO`, the “AUC of culture confluence over time” value came out at 20.3.
For the compound `Cn1c(SC2=CS(=O)(=O)c3ccccc32)nnc1-c1ccc(O)cc1`, the “AUC of culture confluence over time” value was 22.8.
Regarding `Cc1onc(C(=O)N2CCN(C(c3ccc(Cl)cc3)c3ccc(Cl)cc3)CC2)c1[N+](=O)[O-]`, the “AUC of culture confluence over time” value came to 31.1.
For `Cc1cc(NC(=O)c2cccc(NC(=O)/C=C/CN(C)C)c2)ccc1Nc1nccc(-c2cccnc2)n1`, the “AUC of culture confluence over time” value stood at 45.6.
Same read-out and setting: under `c1ccc(-c2noc(NC3CCCC3)n2)cc1` stands 44; under `O=[N+]([O-])c1c(Cl)cc(Cl)c2nsnc12`, 19.8.
Still for that read-out and setting: under `O=C(/C(C(N1CC2=CC=CC=C2)=O)=C/C3=C(C)C=C(O)C=C3C)N(CC4=CC=CC=C4)C1=O` stands 50.9.
Still for that read-out and setting: under `Oc1cccc(O)c1O` stands 46.4.

The assay is the same for the next values; noted with them: 10 µM.
Regarding `O=C(CCCCCCC(=O)Nc1ccccc1)NO`, the “AUC of culture confluence over time” value was 17.9.
Regarding `Cn1c(SC2=CS(=O)(=O)c3ccccc32)nnc1-c1ccc(O)cc1`, the “AUC of culture confluence over time” value came out at 21.2.
Still for that read-out and setting: under `Cc1onc(C(=O)N2CCN(C(c3ccc(Cl)cc3)c3ccc(Cl)cc3)CC2)c1[N+](=O)[O-]` stands 29.2.
Regarding `Cc1cc(NC(=O)c2cccc(NC(=O)/C=C/CN(C)C)c2)ccc1Nc1nccc(-c2cccnc2)n1`, the “AUC of culture confluence over time” value was 31.1.
`c1ccc(-c2noc(NC3CCCC3)n2)cc1`: the “AUC of culture confluence over time” value was 42.5.
Regarding `O=[N+]([O-])c1c(Cl)cc(Cl)c2nsnc12`, the “AUC of culture confluence over time” value came to 10.2.
Still for that read-out and setting: under `O=C(/C(C(N1CC2=CC=CC=C2)=O)=C/C3=C(C)C=C(O)C=C3C)N(CC4=CC=CC=C4)C1=O` stands 49.8; under `Oc1cccc(O)c1O`, 48.

Staying with this assay, now noted: 20 µM.
Take `O=C(CCCCCCC(=O)Nc1ccccc1)NO`: the “AUC of culture confluence over time” value was found to be 18.6.
The same measure, in the same setting: under `Cn1c(SC2=CS(=O)(=O)c3ccccc32)nnc1-c1ccc(O)cc1` stands 22.3; under `Cc1onc(C(=O)N2CCN(C(c3ccc(Cl)cc3)c3ccc(Cl)cc3)CC2)c1[N+](=O)[O-]`, 28.8; under `Cc1cc(NC(=O)c2cccc(NC(=O)/C=C/CN(C)C)c2)ccc1Nc1nccc(-c2cccnc2)n1`, 15.2.
On the same count and under the same terms, under `c1ccc(-c2noc(NC3CCCC3)n2)cc1` stands 44.2; under `O=[N+]([O-])c1c(Cl)cc(Cl)c2nsnc12`, 8; under `O=C(/C(C(N1CC2=CC=CC=C2)=O)=C/C3=C(C)C=C(O)C=C3C)N(CC4=CC=CC=C4)C1=O`, 46.2.
Still for that read-out and setting: under `Oc1cccc(O)c1O` stands 38.4.

The assay is the same for the next values; noted with them: 40 µM.
`O=C(/C(C(N1CC2=CC=CC=C2)=O)=C/C3=C(C)C=C(O)C=C3C)N(CC4=CC=CC=C4)C1=O`: the “AUC of culture confluence over time” value was 34.6.

Staying with this assay, now noted: 80 µM.
With `O=C(/C(C(N1CC2=CC=CC=C2)=O)=C/C3=C(C)C=C(O)C=C3C)N(CC4=CC=CC=C4)C1=O`, the “AUC of culture confluence over time” value was 12.1.
